Source: PubChem BioAssay (NCI)
Values joined by “and” are separate entries in the source; they are usually repeats but may differ in a detail not shown here. Equal values may be shown once.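 1) Cells in 96-well plates. 2) Compound, 48 h, 5 concentrations. 3) Linear interpolation between surrounding doses. 4) Unreached endpoint = highest concentration. Abbreviation: GI50, concentration required for 50% inhibition of growth. Definition used: TGI = concentration required for complete inhibition of growth.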

Experiments:
Assay in all cases: growth of human tumour cells (NCI), 48 h
NCI-H522 lung = system: NCI-H522 lung
TK-10 renal = system: TK-10 renal
OVCAR-4 ovarian = system: OVCAR-4 ovarian
SNB-75 CNS = system: SNB-75 CNS
U251 CNS = system: U251 CNS
SK-MEL-28 melanoma = system: SK-MEL-28 melanoma
IGROV1 ovarian = system: IGROV1 ovarian
EKVX NSCLC = system: EKVX NSCLC
SF-295 CNS = system: SF-295 CNS
NCI-H23 lung = system: NCI-H23 lung

Row | Compound | TGI (NCI-H522 lung) | TGI (TK-10 renal) | TGI (OVCAR-4 ovarian) | TGI (SNB-75 CNS) | TGI (U251 CNS) | TGI (SK-MEL-28 melanoma) | TGI (IGROV1 ovarian) | TGI (EKVX NSCLC) | TGI (SF-295 CNS) | GI50 (OVCAR-4 ovarian) | GI50 (NCI-H23 lung) | TGI (NCI-H23 lung) | GI50 (NCI-H522 lung) | GI50 (TK-10 renal) | GI50 (SNB-75 CNS) | GI50 (U251 CNS) | GI50 (SK-MEL-28 melanoma) | GI50 (IGROV1 ovarian) | GI50 (EKVX NSCLC) | GI50 (SF-295 CNS)
1 | CC(=O)OC1(C#N)CC2OC1C1N=NN(C(=O)OC(C)(C)C)C21 (stereo not given) | > 100 µM | > 100 µM | > 31.6 µM | > 100 µM | > 100 µM | 35.6 µM | > 31.6 µM | > 100 µM | > 100 µM | – | – | – | – | – | – | – | – | – | – | –
2 | CN(C)C1C(=O)C(C(N)=O)=C(O)C2(O)C(=O)C3=C(O)c4c(O)cccc4C(C)(O)C3CC12 (stereo not given) | > 100 µM | > 100 µM | 75 µM and > 100 µM | – | – | > 100 µM | > 100 µM | > 100 µM | – | 31 µM and > 100 µM | 31.4 µM and > 100 µM | 58.5 µM and > 100 µM | – | – | – | – | – | – | – | –
3 | CC1(C)OC2COC(c3[nH]nc4c(=O)[nH]c(=O)[nH]c34)C2O1 (stereo not given) | > 100 µM | > 100 µM | > 100 µM | – | > 100 µM | > 100 µM | > 100 µM | > 100 µM | > 100 µM | – | – | > 100 µM | – | – | – | – | – | – | – | –
4 | N.N.NCCCCCN.O=C([O-])CC(=O)[O-].O=C([O-])CC(=O)[O-].[Pt+4].[Pt+4] | > 100 µM | > 100 µM | – | > 100 µM | > 100 µM | > 100 µM | > 100 µM | > 100 µM | > 100 µM | – | 98.3 µM | > 100 µM | > 100 µM | > 100 µM | > 100 µM | > 100 µM | > 100 µM | > 100 µM | > 100 µM | 73.1 µM
5 | CCC(C)(C)NS(=O)(=O)c1ccccc1 | – | > 100 µM | > 100 µM | > 100 µM | > 100 µM | > 100 µM | > 100 µM | > 100 µM | > 100 µM | – | – | > 100 µM | – | – | – | – | – | – | – | –
6 | CC(C)C1=CC23CCC4C(C)(C(=O)O)CCCC4(C)C2CC1C1C(=O)N(c2cccc(N4C(=O)C5C6CC7C8(C)CCCC(C)(C(=O)O)C8CCC7(C=C6C(C)C)C5C4=O)c2)C(=O)C13 (stereo not given) | 29.7 µM | 30.4 µM | > 100 µM | – | 11 µM | 21.6 µM | – | 24.4 µM | – | – | – | 12.2 µM | – | – | – | – | – | – | – | –
7 | CSC1SCC2C(=O)N(C)C(C(C)C)C(=O)OCC(NC(=O)c3cnc4ccccc4n3)C(=O)NC(C)C(=O)N(C)C1C(=O)N(C)C(C(C)C)C(=O)OCC(NC(=O)c1cnc3ccccc3n1)C(=O)NC(C)C(=O)N2C (stereo not given) | – | – | – | – | – | – | – | – | – | < 0.001 µM | < 0.001 µM | – | < 0.001 µM | < 0.001 µM and 0.0075 µM | – | < 0.001 µM | < 0.001 µM | < 0.001 µM | < 0.001 µM | < 0.001 µM
8 | O=c1c(-c2nc3ccccc3[nH]2)cc2ccccc2n1Cc1cn(Cc2ccccc2Cl)nn1 | 7.98 µM | 6.65 µM | 3.44 µM | 3.2 µM | 7.13 µM | 3.35 µM | – | 20.2 µM | – | 1.72 µM | 3.43 µM | 24.3 µM | 2.24 µM | 2.52 µM | 1.36 µM | 2.41 µM | 1.82 µM | – | 2.74 µM | –
9 | NC(Cc1c[nH]c2cc(F)ccc12)C(=O)O (stereo not given) | 2280 µM | > 2500 µM | > 2500 µM | > 2500 µM | > 2500 µM | > 2500 µM | – | > 2500 µM | > 2500 µM | > 2500 µM | 1010 µM | > 2500 µM | 773 µM | > 2500 µM | 1940 µM | 872 µM | 1150 µM | – | > 2500 µM | 502 µM
10 | CCN(CC)/[N+]([O-])=N/OCC(C)O (stereo not given) | > 100 µM | > 100 µM | – | > 100 µM | > 100 µM | > 100 µM | > 100 µM | > 100 µM | > 100 µM | – | – | > 100 µM | – | – | – | – | – | – | – | –
11 | CC(=Nc1ccccc1)C1=C(O)C(Cc2ccc(F)cc2)NC1=O (stereo not given) | 2.1 µM | > 100 µM | > 100 µM | – | > 100 µM | > 100 µM | > 100 µM | – | – | 14.4 µM | 1.71 µM | > 100 µM | 0.237 µM | 2.1 µM | – | 0.825 µM | 2.63 µM | 1.71 µM | – | –
12 | N#CC(C(=O)O)C(c1c(Cl)cccc1Cl)C(C#N)C(=O)O (stereo not given) | > 100 µM | > 100 µM | > 100 µM | – | > 100 µM | > 100 µM | > 100 µM | > 100 µM | > 100 µM | – | – | > 100 µM | – | – | – | – | – | – | – | –
13 | COc1cc2c(cc1OC)-c1ncc3cc(OC)c(OC)c(OC)c3c1C2 | 41.7 µM | > 100 µM | > 100 µM | > 100 µM | > 100 µM | > 100 µM | > 100 µM | 90.1 µM | 53.8 µM | 62.6 µM | – | – | 10.3 µM | 27.7 µM | 72 µM | 36.8 µM | 46.7 µM | 33.5 µM | 22.8 µM | 18.8 µM
14 | CCCCCN(CCCCC)C(=O)[C@H](CCC(=O)OCc1ccccc1)NC(=O)c1cc2ccccc2[nH]1 | > 100 µM | – | > 100 µM | > 100 µM | > 100 µM | > 100 µM | > 100 µM | > 100 µM | > 100 µM | – | – | > 100 µM | – | – | – | – | – | – | – | –
15 | CCOc1ncnc2ccc(Cl)c(I)c12 | – | > 100 µM | > 100 µM | – | > 100 µM | > 100 µM | > 100 µM | > 100 µM | > 100 µM | – | – | > 100 µM | – | – | – | – | – | – | – | –
16 | CNC(=S)N(C1CCCCC1)C1CCCCC1 | – | > 100 µM | > 100 µM | > 100 µM | > 100 µM | > 100 µM | > 100 µM | > 100 µM | > 100 µM | – | – | > 100 µM | – | – | – | – | – | – | – | –
17 | CCOC(=O)NC(=O)c1cn(C2OC(COC(=O)CCCCCCCCC(=O)OCC3OC(n4cc(C(=O)NC(=O)OCC)c(=O)[nH]c4=O)C4OC(C)(C)OC34)C3OC(C)(C)OC32)c(=O)[nH]c1=O (stereo not given) | – | > 100 µM | > 100 µM | > 100 µM | – | > 100 µM | > 100 µM | > 100 µM | > 100 µM | – | – | > 100 µM | – | – | – | – | – | – | – | –
18 | CC1(C)Oc2ccccc2[N+]([O-])=C1c1ccccc1 | > 100 µM | – | > 100 µM | > 100 µM | > 100 µM | > 100 µM | > 100 µM | – | > 100 µM | – | – | > 100 µM | – | – | – | – | – | – | – | –
19 | Cc1nc(-n2nc(-c3ccccc3)cc2-c2ccccc2)sc1C(=O)/C=C/c1ccc(Cl)cc1 | 25.9 µM | > 100 µM | – | > 100 µM | 36.9 µM | 33.6 µM | > 100 µM | > 100 µM | 30.5 µM | – | – | 34 µM | – | – | – | – | – | – | – | –
